Results reported in patent US7582447B2, “DNA encoding a testicular carnitine transporter” (Human Cell Systems, Inc., priority 2001, dated 2009).
Values belong to the molecule of their own block, whether it stands above or below them.

Experiments:
Assay type in all cases: cell-based
CT2 [1] = target: T1, CT2 (Homo sapiens, UniProt Q86VW1); experiment: inhibition experiment: ^3H-carnitine uptake by oocytes injected with CT2 cRNA in the presence of unlabelled compounds; conditions: for inhibition of ^3H-carnitine transport by CT2: 50 nM ^3H-carnitine, 5 μM or 50 μM unlabelled compound, FIG. 4
T1 construct: a cRNA (RNA complementary to cDNA) was prepared in vitro from a plasmid containing the CT2cDNA; expressed in transfected cells; host or cells: Xenopus laevis oocytes injected with CT2 cRNA
T1 sequence (Q86VW1 1-543 isoform Q86VW1-2): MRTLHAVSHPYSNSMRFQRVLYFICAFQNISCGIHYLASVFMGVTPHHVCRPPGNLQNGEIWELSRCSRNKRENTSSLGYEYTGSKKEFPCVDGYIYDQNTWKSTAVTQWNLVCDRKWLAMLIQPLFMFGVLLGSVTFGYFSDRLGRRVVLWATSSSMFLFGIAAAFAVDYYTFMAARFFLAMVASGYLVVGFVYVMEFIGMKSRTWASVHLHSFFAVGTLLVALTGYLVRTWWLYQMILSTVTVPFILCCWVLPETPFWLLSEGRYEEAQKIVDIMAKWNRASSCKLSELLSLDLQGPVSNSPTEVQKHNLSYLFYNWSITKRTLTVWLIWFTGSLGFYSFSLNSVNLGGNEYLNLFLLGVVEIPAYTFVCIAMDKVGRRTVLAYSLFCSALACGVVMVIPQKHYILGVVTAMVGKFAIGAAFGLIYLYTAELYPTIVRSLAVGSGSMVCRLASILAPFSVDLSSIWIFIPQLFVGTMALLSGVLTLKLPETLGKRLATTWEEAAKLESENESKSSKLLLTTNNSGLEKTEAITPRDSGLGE
Method: (§1) The thus-obtained cRNA was injected into oocytes of a platanna in accordance with the already reported method (Sekine, T. et al., J. Biol. Chem., Vol. 272, pp. 18526-18529, 1997), and an uptake experiment by radioactive labeled L-carnitine was conducted on the oocytes.
(3) An influence to be exerted by D-Carnitine, which is an isomer of L-carnitine, on the L-carnitine transport by CT2 was studied.
(6) In order to study further on the substrate selectivity of CT2, in the ^3H-carnitine uptake experiment system by oocytes into which CT2cRNA was injected, various carnitine analogs were added to the system and its influences were investigated (inhibition experiment).
The ^3H-carnitine uptake experiment was performed in accordance with the above-described method using oocytes into which CT2cRNA was injected. 50 nM ^3H-carnitine uptake was measured in the presence or absence of 5 μM or 50 μM of various compounds (unlabelled).

CT2 [2] = target: T1, CT2; experiment: uptake experiment of radioactive labeled substrates by oocytes injected with human CT2 cRNA; conditions: platanna oocytes injected with CT2 cRNA; FIG. 1A
Method: It is possible to confirm the ability to transport (uptake) carnitine into a cell by expressing a cRNA prepared from the obtained CT2cDNA by introducing the cRNA into an oocyte and measuring a substrate uptake into the cell employing an ordinary uptake experiment (Sekine, T et al., Biochem. Biophis. Res. Commun., Vol. 251, pp. 586-591, 1998) wherein carnitine is used as a substrate.
Next, a cRNA (RNA complementary to cDNA) was prepared in vitro from a plasmid containing the CT2cDNA by using a T7RNA polymerase (see Sekine, T., et al., J. Biol. Chem., Vol. 272, pp. 18526-18529, 1997).
as §1
A concentration dependence of the carnitine transport by CT2 was studied through an investigation of changes in amounts of uptake of various concentration carnitines by CT2. The uptake experiment of radioactive labeled carnitines was performed by using oocytes into which the CT2cRNA was injected and in accordance with the above-described method.

[3] = substrate: C[N+](C)(C)C[C@H](O)CC(=O)[O-]; experiment: as above; conditions: other: Michaelis-Menten kinetics, oocytes injected with CT2cRNA; FIG. 2A

Molecule: CC[N+](CC)(CC)CC [tetraethylammnonium, tetraethyl ammonium]
inhibition of ^3H-carnitine transport by CT2 (CT2 [1]): did not show inhibition effect | uptake of radioactive labeled substrate by oocytes which expressed the CT2 (CT2 [2]): not observed

Molecule: CC(=O)O[C@H](CC(=O)[O-])C[N+](C)(C)C [acetyl L-carnitine]
inhibition of ^3H-carnitine transport by CT2 (CT2 [1]): significantly inhibited

inhibition of ^3H-carnitine transport by CT2 (CT2 [1]): significantly inhibited
Molecule: C[N+](C)(C)CC(=O)O [betaine]

inhibition of ^3H-carnitine transport by CT2 (CT2 [1]): significantly inhibited
Molecule: CC(=O)OC(CC(=O)[O-])C[N+](C)(C)C (racemic) [acetyl DL-carnitine]

inhibition of ^3H-carnitine transport by CT2 (CT2 [1]): did not show inhibition effect | uptake of radioactive labeled substrate by oocytes which expressed the CT2 (CT2 [2]): not observed
Molecule: Nc1ccc(C(=O)NCC(=O)O)cc1 [paraamino hippuric acid]

uptake of radioactive labeled substrate by oocytes which expressed the CT2 (CT2 [2]): exhibit ^3H-L-carnitine uptake
Molecule: C[N+](C)(C)C[C@H](O)CC(=O)[O-] [L-carnitine]

inhibition of ^3H-carnitine transport by CT2 (CT2 [1]): significantly inhibited | Ki (CT2 [1]; oocytes injected with CT2 cRNA, FIG. 2B, read-out: Ki value, inhibition of the L-carnitine transport by CT2): ~30.1 µM
Molecule: C[N+](C)(C)C[C@@H](O)CC(=O)[O-] [D-carnitine]
inhibition of the L-carnitine transport by CT2 (concentration dependence) (CT2 [1]; oocytes injected with CT2 cRNA, FIG. 2B): inhibited the L-carnitine transport by CT2 in a concentration dependent manner

inhibition of ^3H-carnitine transport by CT2 (CT2 [1]): significantly inhibited
Molecule: CCCCCCCC(=O)O[C@H](CC(=O)[O-])C[N+](C)(C)C [octanoyl L-carnitine]

B1: CT2 (Homo sapiens) (protein)
chain: T1 sequence (Q86VW1 1-543 isoform Q86VW1-2)
notes: a cRNA (RNA complementary to cDNA) was prepared in vitro from a plasmid containing the CT2cDNA; expressed in transfected cells; host or cells: Xenopus laevis oocytes injected with CT2 cRNA
Km [3]: 20.3 µM
